Values joined by “and” are separate entries in the source; they are usually repeats but may differ in a detail not shown here. Identical values can stand only once.
What was measured:
[1] = target: T1, ~100 representative kinases (Homo sapiens, UniProt O75385); assay: DSF 100 kinase selectivity screen; assay type: binding; conditions: Protein ULK1; DSF; average of three replicates;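 also: compound tested at 20 µM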
T1 construct: Recombinant protein kinase domains with a concentration of 2 μM
T1 sequence (O75385 1-1050): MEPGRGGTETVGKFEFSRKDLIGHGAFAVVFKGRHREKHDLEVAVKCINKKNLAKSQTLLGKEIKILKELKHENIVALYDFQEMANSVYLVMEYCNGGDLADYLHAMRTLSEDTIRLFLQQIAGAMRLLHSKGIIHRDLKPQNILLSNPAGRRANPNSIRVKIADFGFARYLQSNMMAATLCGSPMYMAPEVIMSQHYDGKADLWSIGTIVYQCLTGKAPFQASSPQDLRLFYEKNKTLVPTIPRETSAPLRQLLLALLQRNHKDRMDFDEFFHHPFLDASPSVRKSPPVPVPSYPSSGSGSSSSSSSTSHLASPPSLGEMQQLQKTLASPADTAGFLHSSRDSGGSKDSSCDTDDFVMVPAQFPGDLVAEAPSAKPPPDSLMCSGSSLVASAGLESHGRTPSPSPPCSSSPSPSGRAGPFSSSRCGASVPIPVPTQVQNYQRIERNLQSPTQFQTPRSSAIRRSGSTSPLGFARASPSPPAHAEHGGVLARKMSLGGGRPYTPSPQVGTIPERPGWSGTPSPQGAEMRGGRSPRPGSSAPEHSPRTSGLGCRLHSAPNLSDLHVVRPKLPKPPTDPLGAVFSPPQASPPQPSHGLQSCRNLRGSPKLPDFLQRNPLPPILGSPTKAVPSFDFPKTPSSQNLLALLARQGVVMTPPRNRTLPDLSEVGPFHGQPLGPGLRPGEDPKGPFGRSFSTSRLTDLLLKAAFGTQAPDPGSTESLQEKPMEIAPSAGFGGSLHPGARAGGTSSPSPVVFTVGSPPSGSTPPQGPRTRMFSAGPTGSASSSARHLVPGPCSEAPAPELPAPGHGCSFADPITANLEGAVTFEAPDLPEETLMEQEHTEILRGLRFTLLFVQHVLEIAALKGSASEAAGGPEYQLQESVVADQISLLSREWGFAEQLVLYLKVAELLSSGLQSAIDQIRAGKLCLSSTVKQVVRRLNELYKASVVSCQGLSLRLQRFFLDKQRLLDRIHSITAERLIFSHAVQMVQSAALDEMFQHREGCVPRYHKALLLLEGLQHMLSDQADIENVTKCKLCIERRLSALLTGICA
Outline: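 Each kinase domain, at 2 μM, is mixed with 20 μM test compound and SYPRO Orange in Hepes (20 mM, pH 7.5) with 500 mM NaCl. Temperature is then raised at 3°C/min and fluorescence-monitored unfolding yields the melting temperature change, ΔTm in degrees Celsius.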

LRRK2^RCKW = target: T2, LRRK2^RCKW (Homo sapiens, UniProt Q5S007); assay: Biochemical LRRK2 activity assay (PhosphoSense, AssayQuant SOX peptide AQT0615); conditions: for IC50: LRRK2^RCKW kinase activity, in vitro; for normalized response (LRRK2 activity): normalized to 0% (no kinase) and 100% (no inhibitor) control, two singlicate columns per compound
T2 construct: LRRK2 R1327 to E2527; His6-Z-tag (TEV cleavable) (N, cleaved yes); host or cells: Sf9 insect cells (baculovirus)
T2 sequence (Q5S007 1327-2527): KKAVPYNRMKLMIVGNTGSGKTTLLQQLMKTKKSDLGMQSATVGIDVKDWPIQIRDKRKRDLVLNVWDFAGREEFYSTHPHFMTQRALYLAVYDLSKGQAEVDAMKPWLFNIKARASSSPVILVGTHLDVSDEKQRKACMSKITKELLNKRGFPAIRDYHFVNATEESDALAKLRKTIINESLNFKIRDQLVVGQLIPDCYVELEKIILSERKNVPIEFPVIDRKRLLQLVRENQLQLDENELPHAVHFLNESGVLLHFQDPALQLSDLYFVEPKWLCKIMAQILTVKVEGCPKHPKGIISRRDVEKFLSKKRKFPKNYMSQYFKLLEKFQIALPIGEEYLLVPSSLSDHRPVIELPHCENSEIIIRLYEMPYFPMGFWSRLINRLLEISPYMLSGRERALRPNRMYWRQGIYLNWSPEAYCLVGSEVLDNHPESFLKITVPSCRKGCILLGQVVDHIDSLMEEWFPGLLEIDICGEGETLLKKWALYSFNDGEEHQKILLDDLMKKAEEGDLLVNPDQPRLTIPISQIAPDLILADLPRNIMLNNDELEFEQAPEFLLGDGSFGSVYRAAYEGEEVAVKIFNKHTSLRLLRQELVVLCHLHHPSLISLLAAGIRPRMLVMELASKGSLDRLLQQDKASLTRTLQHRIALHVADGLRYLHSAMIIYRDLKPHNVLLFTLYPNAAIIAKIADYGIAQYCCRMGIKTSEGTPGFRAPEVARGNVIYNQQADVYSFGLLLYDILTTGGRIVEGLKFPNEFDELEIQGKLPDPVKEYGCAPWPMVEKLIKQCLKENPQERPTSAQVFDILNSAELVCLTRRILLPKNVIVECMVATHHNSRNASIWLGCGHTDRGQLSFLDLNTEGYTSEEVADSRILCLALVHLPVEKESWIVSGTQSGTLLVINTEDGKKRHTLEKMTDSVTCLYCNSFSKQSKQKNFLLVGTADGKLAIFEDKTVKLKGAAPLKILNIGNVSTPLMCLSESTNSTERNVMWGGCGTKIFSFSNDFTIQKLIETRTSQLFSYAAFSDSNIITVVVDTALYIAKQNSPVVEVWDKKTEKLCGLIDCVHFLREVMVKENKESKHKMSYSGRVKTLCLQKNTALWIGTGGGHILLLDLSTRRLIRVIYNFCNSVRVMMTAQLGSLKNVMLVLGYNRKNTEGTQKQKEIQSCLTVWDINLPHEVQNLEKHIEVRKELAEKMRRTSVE
Outline: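 Controls lacked protein and compound (0%) or compound only (100%). IC50 derived by nonlinear regression of normalized response versus log[inhibitor].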

Row | dTm [1] [K] | IC50 (LRRK2^RCKW) [nM] | normalized response (LRRK2 activity) (LRRK2^RCKW; log[inhibitor(mol)] -5.12494) | normalized response (LRRK2 activity) (LRRK2^RCKW; log[inhibitor(mol)] -5.60206) | normalized response (LRRK2 activity) (LRRK2^RCKW; log[inhibitor(mol)] -6.30103) | normalized response (LRRK2 activity) (LRRK2^RCKW; log[inhibitor(mol)] -6.90309) | normalized response (LRRK2 activity) (LRRK2^RCKW; log[inhibitor(mol)] -7.30103) | normalized response (LRRK2 activity) (LRRK2^RCKW; log[inhibitor(mol)] -7.60206) | normalized response (LRRK2 activity) (LRRK2^RCKW; log[inhibitor(mol)] -8.09691) | normalized response (LRRK2 activity) (LRRK2^RCKW; log[inhibitor(mol)] -8.61979) | normalized response (LRRK2 activity) (LRRK2^RCKW; log[inhibitor(mol)] -9.09691) | normalized response (LRRK2 activity) (LRRK2^RCKW; log[inhibitor(mol)] -9.39794) | SMILES | normalized response (LRRK2 activity) (LRRK2^RCKW; log[inhibitor(mol)] -4.82391)
1 | -0.79 | 4.96 ± 0.11 | -4.747% and -10.7141% | -11.8877% and -7.237% | -22.7354% and -19.8398% | -16.5877% and -9.211% | -3.623% and 0.9398% | 12.0233% and 5.13% | 39.1206% and 42.4988% | 81.2335% and 75.689% | 74.4661% and 78.5518% | 100.642% and 97.3515% | COc1cc(C(=O)N2CCOCC2)c(F)cc1Nc1nc(N(C)C)c2c(Cl)c[nH]c2n1 [Compound 36] | –
2 | 6.89 | 756 ± 20 | 7.718% and 4.844% | 24.5327% and 23.4304% | 59.5875% and 59.3462% | 87.2332% and 86.1364% | 105.83% and 97.719% | 93.8691% and 88.2314% | 93.7155% and 94.1323% | 97.5599% and 105.43% | 94.6588% and 101.816% | 98.0974% and 115.57% | Cc1ccc(C(=O)Nc2ccc(CN3CCN(C)CC3)c(C(F)(F)F)c2)cc1C#Cc1c[nH]c2ncnc(N3CCOCC3)c12 [Compound 1] | –
3 | 12.52 | 264 ± 19 | 3.805% and 3.935% | 9.506% and 13.5388% | 29.4238% and 33.7614% | 67.8273% and 68.8623% | 84.3755% and 91.2634% | 88.4282% and 94.2182% | 94.3856% and 94.7313% | 99.7343% and 99.0059% | 100.123% and 100.393% | 97.0165% and 71.9323% | O=C(Nc1cccc(-c2c[nH]c3ncnc(N4CCOCC4)c23)c1)C1(C(=O)Nc2ccc(F)c(Br)c2)CC1 [Compound 19] | 3.161% and 1.4%

Row | SMILES | dTm [1] [K] | IC50 (LRRK2^RCKW) [nM] | normalized response (LRRK2 activity) (LRRK2^RCKW; log[inhibitor(mol)] -5.12494) | normalized response (LRRK2 activity) (LRRK2^RCKW; log[inhibitor(mol)] -5.60206) | normalized response (LRRK2 activity) (LRRK2^RCKW; log[inhibitor(mol)] -6.30103) | normalized response (LRRK2 activity) (LRRK2^RCKW; log[inhibitor(mol)] -6.90309) | normalized response (LRRK2 activity) (LRRK2^RCKW; log[inhibitor(mol)] -7.30103) | normalized response (LRRK2 activity) (LRRK2^RCKW; log[inhibitor(mol)] -7.60206) | normalized response (LRRK2 activity) (LRRK2^RCKW; log[inhibitor(mol)] -8.09691) | normalized response (LRRK2 activity) (LRRK2^RCKW; log[inhibitor(mol)] -8.61979) | normalized response (LRRK2 activity) (LRRK2^RCKW; log[inhibitor(mol)] -9.09691) | normalized response (LRRK2 activity) (LRRK2^RCKW; log[inhibitor(mol)] -9.39794) | normalized response (LRRK2 activity) (LRRK2^RCKW; log[inhibitor(mol)] -4.82391)
4 | Cc1ccc(C(=O)Nc2ccc(CN3CCN(C)CC3)c(C(F)(F)F)c2)cc1C#Cc1cnc2[nH]ncc2c1 [GZD-824, reference compound] | 6.60 | – | 2.902% and -0.761% | – | -12.6856% and -11.6517% | -14.8328% and -12.1996% | -10.7195% and -10.9051% | -2.449% and -0.1425% | 77.0511% and 75.7389% | 100.887% and 96.9327% | 102.124% and 93.9328% | 100.847% and 103.781% | 37.9506% and 22.443%

Reference: article PMC12136037, “Type II kinase inhibitors that target Parkinson’s disease–associated LRRK2” (Science Advances, 2025)
